Source: the supplement of paper PMC10627819

Tests used:
[1] = tested on: S. aureus DSM 20231; assay: fitness (endpoint OD595 vs no drug) (fraction); higher = more growth
In short: (§1)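 Plates with 384 wells were inoculated at OD595 0.01 using 30 µl of TSB, LB Lennox or CY, or 55 µl for S. pneumoniae. Incubation was at 37 °C, with OD595 measured every 30 min for 14 h. Fitness is the stationary-phase transition optical density over the robust mean of no-drug control wells, after first-reading background subtraction; it is capped at 1.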

[2] = tested on: S. aureus Newman; assay: as above
In short: as §1

[3] = tested on: S. pneumoniae D39V; assay: as above
In short: as §1

[4] = tested on: S. aureus DSM 20231; assay: Bliss interaction score (quartile over a dose matrix) (fitness difference); higher = more antagonism (negative = synergy)
In short: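 OD595 was read at entry into stationary phase and expressed relative to the robust mean of the no-drug wells on the same plate, capped at 1. The resulting ratio is the fitness value. The Bliss score, observed fitness minus product-based expected fitness with single-drug fitness inferred from combinations, is summarised by quartiles over technical, biological and donor/recipient replicates.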
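For Bliss interaction score (quartile over a dose matrix) in this document: first quartile when negative (synergy) and third quartile when positive (antagonism).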

CO[C@@]12[C@H](COC(N)=O)C3=C(C(=O)C(C)=C(N)C3=O)N1C[C@@H]1N[C@@H]12 [Mitomycin C] + Cc1onc(-c2ccccc2)c1C(=O)N[C@@H]1C(=O)N2[C@@H]1SC(C)(C)[C@@H]2C(=O)O [Oxacillin]
Details	fitness
[1], first compound 0.0156 µg/mL, partner 0.0156 µg/mL	0.586
[1], first compound 0.0156 µg/mL, partner 0.0312 µg/mL	0.458
[1], first compound 0.0156 µg/mL, partner 0.0625 µg/mL	0.389
[1], first compound 0.0312 µg/mL, partner 0.0156 µg/mL	0.581
[1], first compound 0.0312 µg/mL, partner 0.0312 µg/mL	0.499
[1], first compound 0.0312 µg/mL, partner 0.0625 µg/mL	0.432
[1], first compound 0.0625 µg/mL, partner 0.0156 µg/mL	0.544
[1], first compound 0.0625 µg/mL, partner 0.0312 µg/mL	0.474
[1], first compound 0.0625 µg/mL, partner 0.0625 µg/mL	0.348
[2], first compound 0.0156 µg/mL, partner 0.0156 µg/mL	0.672
[2], first compound 0.0156 µg/mL, partner 0.0312 µg/mL	0.616
[2], first compound 0.0156 µg/mL, partner 0.0625 µg/mL	0.485
[2], first compound 0.0312 µg/mL, partner 0.0156 µg/mL	0.571
[2], first compound 0.0312 µg/mL, partner 0.0312 µg/mL	0.534
[2], first compound 0.0312 µg/mL, partner 0.0625 µg/mL	0.423
[2], first compound 0.0625 µg/mL, partner 0.0156 µg/mL	0.421
[2], first compound 0.0625 µg/mL, partner 0.0312 µg/mL	0.307
[2], first compound 0.0625 µg/mL, partner 0.0625 µg/mL	0.111
[3], first compound 0.001075 µg/mL, partner 0.01 µg/mL	0.973
[3], first compound 0.001075 µg/mL, partner 0.02 µg/mL	0.957
[3], first compound 0.002 µg/mL, partner 0.01 µg/mL	0.838
[3], first compound 0.002 µg/mL, partner 0.02 µg/mL	0.764
[3], first compound 0.002 µg/mL, partner 0.04 µg/mL	0.219
[3], first compound 0.00215 µg/mL, partner 0.01 µg/mL	0.974
[3], first compound 0.00215 µg/mL, partner 0.02 µg/mL	0.968
[3], first compound 0.00215 µg/mL, partner 0.04 µg/mL	0.605
[3], first compound 0.004 µg/mL, partner 0.01 µg/mL	0.813
[3], first compound 0.004 µg/mL, partner 0.02 µg/mL	0.735
[3], first compound 0.004 µg/mL, partner 0.04 µg/mL	0.227
[3], first compound 0.0043 µg/mL, partner 0.01 µg/mL	0.891
[3], first compound 0.0043 µg/mL, partner 0.02 µg/mL	0.822
[3], first compound 0.008 µg/mL, partner 0.01 µg/mL	0.664
[3], first compound 0.008 µg/mL, partner 0.02 µg/mL	0.636
[3], first compound 0.008 µg/mL, partner 0.04 µg/mL	0.241

CO[C@@]12[C@H](COC(N)=O)C3=C(C(=O)C(C)=C(N)C3=O)N1C[C@@H]1N[C@@H]12 [Mitomycin C] + Cn1nnc(-c2ccc(-c3ccc(N4C[C@H](CO)OC4=O)cc3F)cn2)n1 [Tedizolid]
fitness
Details	partner 0.03125 µg/mL	partner 0.0625 µg/mL	partner 0.125 µg/mL	partner 0.25 µg/mL	partner 0.5 µg/mL
[1], first compound 0.0156 µg/mL	–	0.701	0.652	0.281	–
[1], first compound 0.0312 µg/mL	–	0.692	0.597	0.225	–
[1], first compound 0.0625 µg/mL	–	0.511	0.47	0.2	–
[2], first compound 0.0156 µg/mL	–	0.653	0.612	0.177	–
[2], first compound 0.0312 µg/mL	–	0.61	0.587	0.084	–
[2], first compound 0.0625 µg/mL	–	0.519	0.379	0.0559	–
[3], first compound 0.001075 µg/mL	–	–	0.76	0.688	0.313
[3], first compound 0.002 µg/mL	0.825	0.821	0.749	–	–
[3], first compound 0.00215 µg/mL	–	–	0.774	0.687	0.273
[3], first compound 0.004 µg/mL	0.745	0.725	0.686	–	–
[3], first compound 0.0043 µg/mL	–	–	0.687	0.617	0.21
[3], first compound 0.008 µg/mL	0.635	0.611	0.518	–	–

CO[C@@]12[C@H](COC(N)=O)C3=C(C(=O)C(C)=C(N)C3=O)N1C[C@@H]1N[C@@H]12 [MitomycinC] + CCCSc1nc(N[C@@H]2C[C@H]2c2ccc(F)c(F)c2)c2nnn([C@@H]3C[C@H](OCCO)[C@@H](O)[C@H]3O)c2n1 [Ticagrelor]
Details	Bliss interaction score
[4]	-0.392

CO[C@@]12[C@H](COC(N)=O)C3=C(C(=O)C(C)=C(N)C3=O)N1C[C@@H]1N[C@@H]12 [MitomycinC] + CCCc1nc2c(C)cc(-c3nc4ccccc4n3C)cc2n1Cc1ccc(-c2ccccc2C(=O)O)cc1 [Telmisartan]
Details	Bliss interaction score
[4]	-0.162

CO[C@@]12[C@H](COC(N)=O)C3=C(C(=O)C(C)=C(N)C3=O)N1C[C@@H]1N[C@@H]12 [MitomycinC] + COc1ccc2[nH]c([S+]([O-])Cc3ncc(C)c(OC)c3C)nc2c1 [Omeprazole]
Details	Bliss interaction score
[4]	0.169
